In publication PMC10865350, “Investigating Polypharmacology through Targeting Known Human Neutrophil Elastase Inhibitors to Proteinase 3” (Journal of Chemical Information and Modeling, 2024):
Read-outs that look alike come from different tables or passages of the source.

Experiments:
Proteinase 3 (PR3) [1] = test: Enzymatic activity assay, PR3 (FRET peptide Abz-VADnVADYQ-EDDnp); format: biochemical, human; settings: selectivity: PR3 IC50 with respect to HNE IC50
Protocol: (§1) II.1 Experimental details
(§2) Chemicals. All chemicals and reagents were of analytical grade. Enzymes, PR3 and HNE, were purchased from Athens Research and Technology.
(§3) India) using published procedures.42 The substrate of HNE (MeOSuc-AAPV-AMC) was supplied by Santa Cruz Biotechnology.
(§4) Activity assay. The enzymatic assays for both PR3 and HNE were conducted according to the method published in (Budnjo et al., 2014) with minor modifications. Briefly, 0.5 nM of enzyme […]
(§5) same buffer containing the inhibitors at various concentrations for 30 min at RT. For PR3, the […]
(§6) 320, emission filter 420) at a final concentration of 5 μM while the HNE reaction was started by […]
(§7) at a final concentration of 5 μM. The fluorescent signal was read every 30 second for 30 min at 30 °C using a fluorescent plate reader (Tecan Spark). The enzymatic activity was measured from the initial linear portion of the slope (fluorescent signal/min) of the time-course curve of reaction progress. The activity data were produced in triplicates. Data were fitted using nonlinear regression analysis (GraphPad Prism v.9) to determine the IC50 values.

Proteinase 3 (PR3) [2] = target: T1, Proteinase 3 (PR3) (Homo sapiens, UniProt P24158); test: as above; format: biochemical; settings: best enantiomer for compounds 5-8
T1 construct: purchased Athens Research and Technology
T1 sequence (P24158 28-256): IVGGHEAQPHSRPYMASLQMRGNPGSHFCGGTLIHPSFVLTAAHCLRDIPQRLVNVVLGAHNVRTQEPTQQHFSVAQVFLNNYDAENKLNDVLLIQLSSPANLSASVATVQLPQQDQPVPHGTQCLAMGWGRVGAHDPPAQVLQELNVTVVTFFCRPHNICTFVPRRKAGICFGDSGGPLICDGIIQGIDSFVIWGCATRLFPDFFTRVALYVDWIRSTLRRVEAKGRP
Protocol: as §1, §2, §3, §4, §5, §6, §7

[3] = test system: human neutrophil elastase (HNE); settings: Bayer HealthCare AG value; cited from earlier work
HNE = target: T2, HNE (Homo sapiens, UniProt P08246); test: Enzymatic activity assay, HNE (fluorogenic substrate MeOSuc-AAPV-AMC); format: biochemical; settings: best enantiomer for compounds 5-8
T2 construct: purchased Athens Research and Technology
T2 sequence (P08246 30-267): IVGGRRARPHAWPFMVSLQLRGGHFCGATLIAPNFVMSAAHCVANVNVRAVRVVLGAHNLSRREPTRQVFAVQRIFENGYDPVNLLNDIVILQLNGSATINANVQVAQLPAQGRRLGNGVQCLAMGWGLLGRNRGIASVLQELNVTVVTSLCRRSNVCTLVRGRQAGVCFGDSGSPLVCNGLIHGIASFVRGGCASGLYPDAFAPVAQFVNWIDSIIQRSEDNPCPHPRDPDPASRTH
Protocol: as §1, §2, §3, §4, §5, §6, §7

[4] = test system: human neutrophil elastase (HNE); test: HNE inhibition IC50 reported by Bayer HealthCare AG (literature values); format: biochemical; settings: 298.15 K; calculated from Bayer HealthCare AG IC50 values, Nussbaum et al. refs 9-11
Description: To ensure we had the best models to represent the selected ligands and their interactions with the protein, we explored four different force field combinations for protein and ligands (Table 2) and compared the predicted values to published experimental data for HNE. […] The predicted free energies obtained with MSλD are provided in Table S3 together with the free energies derived from published experimental data.

[5] = 0.5 nM enzyme, 5 μM FRET peptide, triplicates, read-out: IC50 PR3
[6] = 0.5 nM enzyme, 5 μM substrate, triplicates, read-out: IC50 HNE
[7] = read-out: pIC50 HNE (converted)

Compound	IC50 ratio (PR3/HNE) (Proteinase 3 (PR3) [1])	IC50 (Proteinase 3 (PR3) [2]; [5])	IC50 (HNE; [6])	IC50 (HNE; [7])	ΔGexpt HNE (ΔG = RTln(IC50)) [4]	IC50 (Proteinase 3 (PR3) [2]; read-out: pIC50 PR3 (converted))	IC50 [3]
CC1=C(C#N)[C@@H](c2ccc(C#N)cc2)n2nc(NC(=O)C3CC3)nc2N1c1cccc(C(F)(F)F)c1 [Compound 6]	13	7.7 ± 0.6 nM	0.6 nM	0.794 nM	-12.8 kcal/mol		0.35 nM
COc1nc2n(n1)[C@H](c1ccc(C#N)cc1)C(C#N)=C(C)N2c1cccc(C(F)(F)F)c1 [Compound 4]					-9.7 kcal/mol		69 nM
CC1=C(C#N)[C@@H](c2ccc(C#N)cc2)n2nc(NC(=O)C3CCCCC3)nc2N1c1cccc(C(F)(F)F)c1 [Compound 11]							< 0.3 nM
CC1=C(C#N)[C@@H](c2ccc(C#N)cc2)n2ncnc2N1c1cccc(C(F)(F)F)c1 [Compound 2]					-10.6 kcal/mol		15 nM

The next lines start with results.

IC50 ratio (PR3/HNE) (Proteinase 3 (PR3) [1])	IC50 (Proteinase 3 (PR3) [2]; [5])	IC50 (HNE; [6])	IC50 (HNE; [7])	ΔGexpt HNE (ΔG = RTln(IC50)) [4]	IC50 (Proteinase 3 (PR3) [2]; read-out: pIC50 PR3 (converted))	Compound	IC50 [3]
146	190 ± 10 nM	1.3 ± 0.2 nM	1.26 nM	-12.5 kcal/mol		CNc1nc2n(n1)[C@H](c1ccc(C#N)cc1)C(C#N)=C(C)N2c1cccc(C(F)(F)F)c1 [Compound 5]	0.59 nM
				-10.8 kcal/mol		CC1=C(C#N)[C@@H](c2ccc(C#N)cc2)n2nc(NS(C)(=O)=O)nc2N1c1cccc(C(F)(F)F)c1 [Compound 9]	12 nM
19		1.1 ± 0.1 nM	1.26 nM	-13.3 kcal/mol	20 nM	COC(=O)Nc1nc2n(n1)[C@H](c1ccc(C#N)cc1)C(C#N)=C(C)N2c1cccc(C(F)(F)F)c1 [Compound 7]	0.17 nM
				-9.9 kcal/mol		CNS(=O)(=O)Nc1nc2n(n1)[C@H](c1ccc(C#N)cc1)C(C#N)=C(C)N2c1cccc(C(F)(F)F)c1 [Compound 10]	50 nM
				-11.7 kcal/mol		CC1=C(C#N)[C@@H](c2ccc(C#N)cc2)n2nc(N)nc2N1c1cccc(C(F)(F)F)c1 [Compound 3]	2.5 nM
74	58.9 ± 6 nM	0.8 ± 0.1 nM	0.794 nM	-12.9 kcal/mol		CNC(=O)Nc1nc2n(n1)[C@H](c1ccc(C#N)cc1)C(C#N)=C(C)N2c1cccc(C(F)(F)F)c1 [Compound 8]	0.3 nM
